{"source": "patent US6951727B2", "about": "“Methods and reagents for quantitation of cell-surface molecule expression on peripheral blood cells” (Becton Dickinson and Company, priority 1998, dated 2005)", "key": {"[1]": {"system": "HLA-DR on CD14+ peripheral blood monocytes", "assay": "Stabilization of HLA-DR-specific fluorescent signal during anti-HLA-DR antibody staining of whole blood, flow cytometry", "format": "cell-based, human", "procedure": "Peripheral blood samples were drawn from normal volunteers.\nThe time-dependence of the HLA-DR-specific signal detectable by flow cytometry of antibody-stained peripheral blood monocytes was assessed by varying the duration of antibody staining.\nThe effect of various additives on the stability of HLA-DR-specific fluorescence intensity was tested by including these reagents during the staining step.\nIncubation was at room temperature for the times indicated, after which 1 ml of 1× FACS™ Lysing Solution was added and incubation continued for 10 minutes.\nFollowing erythrocyte lysis, the samples were centrifuged at 250×g for 5 minutes, the supernatant removed, the pellet resuspended in 2 ml of PBS+0.5% BSA and recentrifuged. The final pellet was suspended in 0.5 ml of PBS+BSA and analyzed by flow cytometry, as above. Results are plotted in FIG. 2A.\nA second experiment, reported in FIG. 2B, was performed similarly, but omitting the post-lysis wash step: following erythrocyte lysis, the samples were centrifuged at 250×g for 5 minutes, the supernatant, containing lysis debris, removed, and the pellet resuspended directly in 0.5 ml of PBS+0.5% BSA. Again, flow cytometric acquisition of at least 2000 monocyte events was performed, and the PE fluorescence intensity of the monocyte population plotted.\nTo test whether Brefeldin A and monensin would similarly stabilize HLA-DR expression in the flow cytometric assay, an additional series of experiments was performed.\nTo 50 μl EDTA-anticoagulated whole blood was added 10 μl staining reagent (500 ng of HLA-DR-PE and 63 ng CD14-PerCP/CY5.5 in buffered saline containing gelatin and 0.1% sodium azide); the staining reagent further included the additives noted below. Samples were incubated with staining reagent for the times indicated, after which 1 ml of 1× FACS™ Lysing Solution was added. After incubation with lysing solution for 9.5 to 11.5 minutes, samples were directly analyzed using a FACSCalibur™ brand flow cytometer (BDIS, San Jose, Calif.).\nAdditives to the staining composition for this latter series of experiments, reported in FIG. 2C, were: (A) nothing (“Control”); (B) 18 mM chloroquine; (C) 0.2 mM Brefeldin A; and (D) 0.013 mM monensin. Final concentrations of additives after 1:6 dilution during staining were: (B) 3 mM chloroquine; (C) 0.034 mM Brefeldin A; and (D) 0.0022mM monensin. […] 212:89-98 (1998).\nThe data presented in FIG. 2C were acquired immediately after lysis; in contrast to experiments the results of which are presented in FIG. 1, the removal of lysis debris (by centrifugation and aspiration, optionally followed by wash) was omitted.\nA further experiment was performed to determine the minimum concentration of chloroquine needed to effect stabilization of HLA-DR expression on the surface of monocytes.\nAn aliquot of 50 μl peripheral blood was drawn from a healthy volunteer and mixed with 10 μl HLA-DR quantitation reagent (50 μg/ml HLA-DR PE, 6.3 μg/ml CD14 PerCP-Cy5.5, in 10 mM sodium pyrophosphate, 0.15 M NaCl, pH 8). The HLA-DR quantitation reagent further contained chloroquine at 0 mM (control), 6 mM, 12 mM, or 18 mM.\nIn each experiment, 4 blood samples were stained for each chloroquine level, with one each of the samples stained for 20, 40, 60 or 80 minutes.\nAt the end of the staining period, the samples were lysed with 1× FACS™ Lysing Solution (BDIS) and analyzed on a FACScalibur Flow Cytometer. Five hundred monocyte events were collected."}, "[2]": {"system": "CD11b on human blood cells", "assay": "Stabilization of CD11b-specific fluorescent signal during antibody staining of whole blood, flow cytometry", "format": "cell-based", "details": "3 mM final concentration, whole blood of three normal donors", "procedure": "Blood from three normal adult donors was collected in standard EDTA Vacutainer® tubes and placed directly on ice. Fifty (50) μl of whole blood was transferred to a tube containing 20 μl of a cocktail of CD11b PE and CD45 PerCP antibodies with or without chloroquine, with the chloroquine-containing tubes having a final chloroquine concentration of 3 mM. Blood was stained for the indicated time at room temperature before addition of 1.0 ml FACS lysing reagent (1×). Flow cytometric analysis was performed essentially as described in Examples 1 and 2."}, "[3]": {"system": "monocyte HLA-DR expression", "details": "cited from earlier work"}, "[4]": {"details": "additive during staining, final concentration 3 mM chloroquine, 0.1% azide, 0.034 mM Brefeldin A, 0.0022 mM monensin, 10-15 to 60 min incubation"}}, "note": "Entries after “also recorded” stand apart in the source; their conditions may differ. Read-outs that look alike come from different tables or passages of the source.", "data": [{"compound": "C[C@H]1CCC/C=C/[C@@H]2C[C@H](O)C[C@H]2[C@H](O)/C=C/C(=O)O1", "note": "[Brefeldin A]", "values": [{"measurement": "stabilization of HLA-DR fluorescence signal over incubation time", "setting": "[1]; [4]", "value": "no significant stabilization"}]}, {"compound": "CCN(CC)CCCC(C)Nc1ccnc2cc(Cl)ccc12", "note": "(stereo not shown) [chloroquine]", "values": [{"measurement": "minimum concentration needed to effect HLA-DR stabilization", "setting": "[1]", "value": 2, "unit": "mM"}, {"measurement": "stabilization of HLA-DR expression at 1 mM", "setting": "[1]", "value": "insufficient to effect stabilization"}, {"measurement": "stabilization of HLA-DR fluorescence signal over incubation time", "setting": "[1]", "value": "reliably stabilized HLA-DR fluorescence; also recorded: stabilizes the HLA-DR fluorescence signal"}, {"measurement": "stabilization of CD11b fluorescent signal over staining time", "setting": "[2]", "value": "can similarly be stabilized"}]}, {"compound": "CCN(CCO)CCCC(C)Nc1ccnc2cc(Cl)ccc12", "note": "(stereo not shown) [hydroxychloroquine]", "values": [{"measurement": "stabilizing HLA-DR signal compared with chloroquine", "setting": "[1]; experiments not shown", "value": "equally effective"}]}, {"compound": "CC[C@@]1([C@@H]2O[C@@H]([C@H]3O[C@@](O)(CO)[C@H](C)C[C@@H]3C)C[C@@H]2C)CC[C@H]([C@]2(C)CC[C@]3(C[C@H](O)[C@@H](C)[C@@H]([C@@H](C)[C@@H](OC)[C@H](C)C(=O)O)O3)O2)O1", "note": "[monensin]", "values": [{"measurement": "stabilization of HLA-DR fluorescence signal over incubation time", "setting": "[1]; [4]", "value": "no significant stabilization"}]}, {"compound": "Gamma interferon: proinflammatory cytokine, major activator of monocytes", "values": [{"measurement": "patients showing an increase in monocyte HLA-DR expression within 1 day of treatment", "setting": "[3]; of 10 septic patients with fewer than 30% HLA-DR positive monocytes", "value": 8}, {"measurement": "patients responding within 2 to 3 days", "setting": "[3]; of 10 septic patients", "value": 2}, {"measurement": "TNFα and IL-6 plasma levels during treatment", "setting": "[3]; septic patients", "value": "significant increase"}]}]}
